What all share (assay): NCI-60 cell line screen, 48 h
Test [1] concerns SNB-19 CNS.
Test [2] concerns MDA-MB-435.
The subject of test [3] is U251 CNS.
Test [4] relates to SF-539 CNS.
Test [5] relates to SK-MEL-5 melanoma.
Test [6] relates to CAKI-1 renal.
In test [7] the test system is NCI-H226 lung.
The subject of test [8] is HCC-2998 colon.
For test [9], the system named is SNB-75 CNS.
Test [10] deals with IGROV1 ovarian.

The values that follow come from PubChem BioAssay (NCI).

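Five concentrations, 48 hours, 96-well plates. Abbreviation: GI50, concentration required for 50% inhibition of growth. TGI: concentration producing complete growth inhibition.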

For the compound `COc1ccc(-c2nc(-c3nc4ccc(C)cc4[nH]3)cc3c2[nH]c2ccccc23)cc1`, the GI50 is 7.28 µM in [1]; 3.94 µM in test [2]; 3.42 µM in test [3]; 3.92 µM in [4]; 3.12 µM in test [5]; 3.28 µM in [6]. Besides, the GI50 was 4.81 µM in test [7], 7.61 µM in test [8], 3.43 µM in test [9] and 3.58 µM in test [10]. In addition, the TGI in test [1] is above 100 µM; in [2] it was above 100 µM; in test [3] it was above 100 µM; in test [4], above 100 µM; in test [5], 12.6 µM; in test [6], above 100 µM. Further, the TGI is 58.7 µM in test [7], above 100 µM in test [8], above 100 µM in test [9] and above 100 µM in test [10].

Regarding `Cc1ccc([N+](=O)[O-])c2c(NCCNC(=O)c3cc(C(=O)NCCNc4ccnc5c(C)ccc([N+](=O)[O-])c45)n(C)n3)ccnc12`, the TGI is above 100 µM in test [1]; above 56.1 µM in test [2]; above 100 µM in test [3]; above 100 µM in test [4]; 58 µM in test [5]; above 100 µM in test [6]. In addition, the TGI in test [7] was above 100 µM; in [8], above 100 µM; in test [9], above 87.3 µM; in test [10], above 100 µM.

For `CNCCCNc1nc2ccccc2c2c(=O)c3cc(OC)ccc3sc12`, the GI50 in test [1] was 1.68 µM; in test [2], 1.8 µM; in [3], 1.81 µM; in [4], 1.7 µM; in [5] it was 1.72 µM; in test [6], 1.66 µM. Moreover, the GI50 is 1.8 µM in test [7], 1.82 µM in test [8], 1.69 µM in [9] and 1.55 µM in test [10]. Further, the TGI in test [1] is 3.18 µM; in test [2], 3.24 µM; in test [3] it was 3.71 µM; in [4], 3.1 µM; in test [5], 3.13 µM; in [6], 3.17 µM. Also, the TGI turned out to be 3.9 µM in [7], 3.49 µM in test [8], 3.39 µM in [9] and 3.03 µM in [10].

In the case of `O=C(Nc1ccccc1I(=O)=O)C1CCCCC1`, the GI50 in test [1], in test [2], in test [3], in test [4], in test [5] and in test [6] was above 100 µM in each case. For the same compound, the GI50 in test [7], in test [8], in [9] and in [10] was above 100 µM in each case. Further, the TGI in test [1], in test [2], in [3], in test [4], in test [5] and in test [6] was above 100 µM in each case. Also, the TGI in [7], in [8], in test [9] and in test [10] was above 100 µM each time.

With `CCCCC#Cc1c(I)n(C)c(=O)[nH]c1=O`, the GI50 in test [1] was 14.6 µM; in test [2] it was 1.64 µM; in test [3], 2.42 µM; in test [4], 15.8 µM; in test [5], 16.4 µM; in test [7], 14.4 µM. Further, the GI50 is 1.58 µM in test [8], 12.3 µM in test [9] and 1.55 µM in test [10]. Moreover, the TGI in test [1] came out at 29.1 µM; in test [2], 3.88 µM; in [3], 6.85 µM; in test [4], 29.2 µM; in test [5] it was 30 µM; in test [6], 0.0843 µM. For the same compound, the TGI in test [7] turned out to be 27.4 µM; in [8], 2.93 µM; in [9], 24.7 µM; in test [10], 3.04 µM.

Take `CN1Cc2ccccc2/C=C\c2ccccc21`: the TGI in test [1], in test [2], in test [3], in [4], in [5] and in [6] was above 100 µM in each case. Besides, the TGI in [7], in [8], in test [9] and in test [10] was above 100 µM each time.

As to `O=C(CN(/C=C/C(=O)C(F)(F)F)c1ccc(Cl)cc1)c1ccc(Cl)c(Cl)c1`, the GI50 in test [1] is 15.4 µM; in test [2], 4.03 µM; in [3], 5.37 µM; in test [4], 20.1 µM; in test [5], 5.33 µM; in test [6], 3.61 µM. Further, the GI50 was 12.5 µM in [7], 12.6 µM in test [8], 13.6 µM in test [9] and 6.8 µM in test [10]. Also, the TGI turned out to be 33.6 µM in test [1]; 13.5 µM in test [2]; 16.8 µM in test [3]; 38 µM in test [4]; 20 µM in test [5]; 12.7 µM in test [6]. Also, the TGI in [7] amounted to 30.1 µM; in test [8], 26.2 µM; in test [9] it was 31.6 µM; in test [10], 22.1 µM.

`CSc1nc2nc3c(nc2c(=O)n1C)C(=O)c1ccccc1C3=O`: the GI50 in test [1] was 0.304 µM; in test [2], 0.0218 µM; in [3], 0.229 µM; in test [4], 0.196 µM; in [5], 0.0169 µM; in test [6], 0.3 µM. Further, the GI50 in [7] was 0.193 µM; in [8] it was 0.275 µM; in test [9] it was 0.128 µM; in [10], 0.271 µM. Further, the TGI in test [1] was 1.28 µM; in test [2], 0.0471 µM; in test [3] it was 0.612 µM; in test [4], 0.384 µM; in test [5] it was 0.0322 µM; in test [6], 1 µM. The TGI in [7] was determined as 0.461 µM; in [8], 0.855 µM; in test [9] it was 0.266 µM; in test [10] it was 0.778 µM.

For the compound `CS(=O)(=O)OCCCNCCCOS(C)(=O)=O`, the TGI in [1] is 6450 µM; in test [2], 8690 µM; in test [3], 5460 µM; in test [4], 5170 µM; in test [5] it was 3220 µM; in [6] it was 4280 µM. In addition, the TGI in test [7] is 5860 µM; in test [8], 3670 µM; in [9] it was 6940 µM; in test [10], 7300 µM.

Consider `CCCc1cc(=O)n2c(C(=O)Nc3ccc(F)cc3)c(C(=O)Nc3ccc(F)cc3)sc2n1`, for which the GI50 in test [1] was 117 µM; in [2], above 160 µM; in [3], 16.3 µM; in test [4], above 160 µM; in test [5] it was above 160 µM; in test [6], 75.3 µM. Moreover, the GI50 in test [7] is 1.71 µM; in test [8] it was above 160 µM; in test [9], 3.48 µM; in test [10], 30.3 µM. For the same compound, the TGI in [1] is above 160 µM; in [2], above 160 µM; in [3], 47.9 µM; in test [4], above 160 µM; in [5], above 160 µM; in test [6] it was above 160 µM. The TGI is 16.3 µM in [7], above 160 µM in test [8], 13.8 µM in [9] and 148 µM in test [10].

With `COc1ccc(/C=C/c2c(C(=O)/C=C/c3ccc(C(F)(F)F)cc3)c(C)nc3ccccc23)cc1`, the GI50 in [1] was 1.62 µM; in test [2] it was 1.89 µM; in [3], 1.53 µM; in test [4] it was 1.85 µM; in test [5] it was 1.68 µM; in test [6], 1.13 µM. Further, the GI50 in [7] was 1.85 µM; in test [8] it was 1.51 µM; in test [9], 1.43 µM; in [10], 0.466 µM. Also, the TGI in test [1] worked out at 3.05 µM; in test [2], 3.72 µM; in test [3], 3.28 µM; in [4], 3.34 µM; in test [5], 3.09 µM; in test [6] it was 2.56 µM. Besides, the TGI in [7] was determined as 4.01 µM; in test [8], 3.07 µM; in [9], 2.85 µM; in [10], 2.39 µM.

For `CC/C(Cc1ccccc1)=C(\c1ccc(OCCN2CCCC2)cc1)c1ccc(OC(=O)NCc2ccccc2)cc1`, the GI50 in [1] is 2.15 µM; in [2], 1.67 µM; in test [3] it was 1.77 µM; in [4] it was 1.7 µM; in test [5], 1.71 µM; in test [6], 1.63 µM. The GI50 was 3.52 µM in test [7], 1.51 µM in [8], 2.13 µM in test [9] and 1.93 µM in test [10]. The TGI in test [1] worked out at 4.58 µM; in test [2] it was 3.12 µM; in [3], 3.17 µM; in test [4], 3.09 µM; in test [5], 3.11 µM; in [6] it was 3.02 µM. Further, the TGI in [7] came to 14.2 µM; in test [8], 2.94 µM; in test [9] it was 6.53 µM; in test [10], 3.87 µM.

On to `COC(=O)Nc1nc2ccccc2[nH]1`, for which the TGI in test [1] is above 100 µM; in test [2], 8.05 µM; in test [3] it was above 100 µM; in [4] it was 50.5 µM; in test [5], above 100 µM; in [6], above 100 µM. Further, the TGI was above 100 µM in test [7], above 100 µM in [8], above 73.8 µM in test [9] and above 100 µM in test [10].

Take `CCCOC(=O)c1c(C)n(C)c2scc[n+]12`: the GI50 in test [1] is 36.3 µM; in test [2] it was above 100 µM; in test [3], 34 µM; in test [4] it was 91.2 µM; in test [5], 49.1 µM; in [6] it was 39.9 µM. Further, the GI50 in test [7] is 62.3 µM; in test [8] it was 55.9 µM; in [9] it was 50.5 µM. Besides, the TGI in test [1], in [2], in test [3], in test [4], in test [5] and in [6] was above 100 µM each time. The TGI in test [7] was above 100 µM; in test [8], above 100 µM; in [9], above 100 µM; in test [10], 22.9 µM.

In the case of `ClCc1ccccc1Cn1cnc2ncnc(Cl)c21`, the GI50 was 7.3 µM in test [1]; 1.95 µM in test [2]; 1.92 µM in test [3]; 2.35 µM in [4]; 1.37 µM in test [5]; 2.36 µM in test [6]. The GI50 is 3.35 µM in [7], 2.26 µM in test [8], 11.3 µM in test [9] and 4.28 µM in [10]. Moreover, the TGI was above 100 µM in test [1]; 3.84 µM in [2]; 4.4 µM in [3]; 4.98 µM in test [4]; 4.12 µM in [5]; 4.21 µM in test [6]. Moreover, the TGI in test [7] was 7.89 µM; in [8], 4.22 µM; in test [9], 26.6 µM; in test [10], 22.7 µM.

For `CC(=O)OC12C=C(C)C(C(C)C1)C1C(=O)N(CCN3CCCCC3)C(=O)C12` (stereo not drawn), the GI50 in test [1], in test [2], in test [3], in test [4], in test [5] and in test [6] was above 50 µM in each case. The GI50 in [7], in test [8], in test [9] and in [10] was above 50 µM each time. Besides, the TGI in test [1], in [2], in test [3], in test [4], in [5] and in test [6] was above 50 µM throughout. Besides, the TGI in test [7], in test [8], in [9] and in test [10] was above 50 µM in each case.
